The values below come from a melting point compilation (Tetko et al.; mined from patent text by program, amines drawn as free bases though some values may be those of a salt).

As for `CC(C)c1ccc(OC(Cc2ccc(OCCNC(=O)c3ccc(-c4ccc(F)cc4)nc3)cc2)C(=O)O)cc1` (stereo unspecified), the melting point (in general, the temperature of the solid-liquid transition) lay in the range of 199 to 200 °C.
`CCCCn1c(=O)c2c(NC)n[nH]c2n(Cc2ccc([N+](=O)[O-])cc2)c1=O` had a melting point of 277 to 279 °C.
The same measure for `FC(F)(F)Sc1ccc(C=Cc2nc(COc3ccc(CCCCn4ccnn4)cc3)co2)cc1`: 144 to 145 °C.
As for `CC1(C)C(C=C(C#N)c2ccccc2)C1C(=O)O` (stereo unspecified), the figure is 186 to 188 °C.
As for `N#Cc1ccc(-c2ccc(N3CCCNC3=O)cc2)cc1`, the figure is above 200 °C; as for `OCc1c(Cl)cncc1Cl`, 87 to 88 °C; as for `CNC(=O)Nc1nc(C(C)c2ccc(-c3ccccc3)c(F)c2)cs1` (stereo unspecified), 208 to 209 °C.
Molecule `CCOC(=O)C(=CC=C1CCc2ccccc2C1=O)N(C)C` displayed a melting point of 123 °C.
As for `CN1CNC(=S)N(c2ccc([N+](=O)[O-])cc2)C1`, the figure is 170 to 172 °C; as for `O=C(Nc1ccc(O)c(C(=O)O)c1)c1ccc([N+](=O)[O-])cc1`, 270 to 271 °C; as for `COc1ccc(Cn2c(O)nc3c(-c4ccco4)ncnc32)cc1`, 143 to 144 °C.
`CCN(CC)C(C)CN1CCc2c(c(=O)oc3cc(OC)ccc23)C1` (stereo unspecified) gave a melting point of 83 to 85 °C.
Turning to `CCC(=O)NC/C=C1\CCc2ncc3c(c21)CCO3`, the melting point was in the range of 163 to 164 °C.
In turn, `CCN1C=C(C(=O)OC)C(=O)CC1c1ccc(OC)c(OC)c1` (stereo unspecified) displayed a melting point of 134 to 135 °C.
`CC(=O)CCc1ccc2c(c1)C(=O)c1ccccc1-2` had a melting point of 75 to 77 °C.
The same measure for `CCCCCCNc1nc(Cl)nc2c(SC)ncnc12`: 80 to 82 °C; for `CC1(C)CC(SCc2c(C(F)(F)F)n[nH]c2Cl)=NO1`: 120 to 122 °C; for `CC(C)(C)OC(=O)C(C1NC(C(=O)OCc2ccccc2)C2(CCSCC2)S1)N1C(=O)c2ccccc2C1=O` (stereo unspecified): 197 to 198 °C.
For the molecule `CCOC(=O)c1c(C(F)(F)F)nc(C(F)(F)Cl)c(C(=O)OC)c1NN(C)C`, the melting point is 97 to 98 °C.
As for `Cn1c(=O)n(Cc2ccc3c(c2)OCO3)c(=O)c2cc(C(=O)NCc3ccc4c(c3)OCO4)ccc21`, the melting point came to 198 °C.
Molecule `CC(=O)N(CCCc1ccccc1)[C@H]1CC[C@H](c2ccc(OCc3ccccc3)cc2)CC1` registered a melting point of 80 to 81.5 °C.
As for `CNC(=O)CC1CN=C(c2cc3cc(Oc4ccc(S(C)(=O)=O)cn4)cc(OC(COC)COC)c3[nH]2)S1` (stereo unspecified), the figure is 123 to 125 °C.
In the case of `Cn1cc(C(F)(F)F)nc1-c1ccc(OCC(O)CNCCOc2ccc(O)c(C(N)=O)c2)cc1` (stereo unspecified), the melting point lay in the range of 195 to 197 °C.
Molecule `CCCCCC(=O)c1c(CBr)nc2cc(OC)c(OC)cc2c1-c1ccc(OC)c(OC)c1` came in with a melting point of 146 to 147 °C.
As for `CCC1=c2ccccc2=NC1=O`, the figure is 100 to 101 °C; as for `Clc1ccc(CN2CC=C(C=Cc3ccsc3)CC2)cc1`, 125 to 127 °C; as for `Nc1nc(-c2ccccc2)cc(C2CCN(C(=O)c3ccccc3)CC2)n1`, 104 to 105 °C.
As for `COc1cc(N(Cc2cccc(SC(F)(F)F)c2)C[C@@H](O)C(F)(F)F)cc(OC)c1OC`, the figure is 88.9 to 89.1 °C; as for `O=[N+]([O-])c1cc([C@@H]2CO2)ccc1OCc1ccccc1`, 66 °C.
Molecule `Cn1ccc(=S)c2ccccc21` displayed a melting point of 208 to 210 °C.
`COc1ccc2cc(CC(C(C)=O)C(=O)OC(C)(C)C)ccc2c1` (stereo unspecified) displayed a melting point of 63.6 °C.
The same measure for `CC(C)(C)OC(=O)C=Cc1ccc(NC(=O)C=C2CC(C(=O)OCc3ccccc3)Nc3cc(Cl)cc(Cl)c32)cc1` (racemic): 85 °C; for `CC(C)(C)c1ccc(C(=O)c2ccc3n2Cc2ccccc2N(C(=O)c2ccc(C4CCCCC4)cc2)C3)cc1`: 143 to 145 °C.
The molecule `CCOc1cc(OCc2ccc(CN(C)C)o2)cc2c1C(=O)N(COC(=O)c1c(Cl)cccc1Cl)S2(=O)=O` came in with a melting point of 157 to 158 °C.
For `CC(C)CC(=O)Nc1c(C(=O)c2cccc(C(F)(F)F)c2)[nH]c2cc(Cl)ccc12`, the melting point was in the range of 179 to 180 °C.
As for `CC(=O)c1cc(C(C)=O)cc(N(C(C)=O)C(=O)Nc2ccccc2)c1`, the figure is 223 to 224 °C; as for `Cc1cc(C)c(CCCC(C)(C)O)c(O)c1`, 128 °C; as for `O=C1c2c(Br)cccc2S(=O)(=O)N1CSc1ccccc1`, 174 to 178 °C.
As for `CN1CC=C(c2c[nH]c3ccc(-c4cnc5[nH]cc(C(=O)C(C)(C)C)c5n4)cc23)CC1`, the figure is 263 to 265 °C; as for `Cc1cc(=O)c(C(=O)Nc2ccccc2Cl)c(C)o1`, 206 to 207 °C; as for `c1cc2c3c(c1)C1CCCCCCC1N3CCNC2` (stereo unspecified), 58 to 63 °C.
In the case of `CCOC(=O)c1nn(-c2ccc(Cl)cc2Cl)c(-c2ccc(Br)cc2)c1CBr`, the melting point turned out to be 116 °C.
Consider `CC(C)c1nn(-c2ccc(C(F)(F)F)cn2)cc1CCCCOc1cc(CCC(=O)O)n(C)n1`, for which the melting point was 113 to 114 °C.
As for `COC(=O)c1sc(OC)c(Cl)c1O`, the figure is 109 to 111 °C; as for `O=c1c2c(Cc3ccsc3)n[nH]c2c2cccnc2n1-c1cccc(OC(F)(F)F)c1`, 247 to 251 °C.
The same measure for `O=S(=O)(OC(c1cccc(C(OS(=O)(=O)c2ccc(Cl)cc2)(C(F)(F)F)C(F)(F)F)c1)(C(F)(F)F)C(F)(F)F)c1ccc(Cl)cc1`: 125 °C; for `O=[N+]([O-])c1ccc(O)cc1OCCO`: 167 °C; for `CC(=O)OCCCN1CCC(CNC(=O)[C@@H]2CCCN2S(=O)(=O)c2ccc(Cl)c(COc3cccc4c(-n5cccn5)cc(C)nc34)c2Cl)CC1`: 89 °C.
The same measure for `C[C@@H]1N=C(c2ccccc2)c2cc(NC(=O)CCCCCCC(=O)O)ccc2N(C)C1=O`: 87 to 88 °C; for `CC(C)(C)CCC(=S)SC(C)(C)C`: 98 to 99 °C; for `CN(C)C(=O)c1ccc(F)c2c1CC(N(CCCc1c[nH]c3ccc(F)cc13)C1CCC1)CO2` (stereo unspecified): 126 °C.
Turning to `COC(=O)c1ccc(C2CCC(=O)CC2)cc1`, the melting point fell in the range of 91 to 92 °C.
`Nc1ncc2cc(-c3c(Cl)ccc(Cl)c3Cl)c(N)nc2n1` yielded a melting point of 320 to 322 °C.
As for `CC(O)C(C)Sc1cc(C(C)(C)C)c(O)c(C(C)(C)C)c1` (stereo unspecified), the melting point was 73 °C.
Consider `O=S(CCCCOc1ccc(C2=C(c3ccccc3)CCCc3cc(O)ccc32)cc1)CCCC(F)(F)C(F)(F)F` (stereo unspecified), for which the melting point turned out to be 155 °C.
The same measure for `COc1cc2c(cc1OC)C(C)CC(N)C(=O)N2` (stereo unspecified): 103 °C; for `O=C(O)C(=O)C(=O)Nc1cccc([N+](=O)[O-])c1`: 110 °C; for `CCc1cc(N)cc(CC)n1`: 133 to 137 °C.
Molecule `Cn1c(=O)sc2ccc(Cl)cc21` registered a melting point of 106 to 108 °C.
As for `O=C(OCc1ccc(C(F)(F)F)cc1)N1CCC2(CC1)Cn1cc([N+](=O)[O-])nc1O2`, the figure is 189 to 190 °C; as for `CC(C)(O)C1CCC(CNC(=O)c2cccnc2Oc2cccc(C#N)c2)CC1` (stereo unspecified), 129 to 130 °C; as for `COc1c(Oc2ccc3ncc([N+](=O)[O-])n3n2)cnc(CNc2nc(C)nc(C)c2Cl)c1C`, 230 to 232 °C.
For the molecule `CCOC(=O)c1cc(O)c2c(n1)c(C)cc1c(O)cc(C(=O)OCC)nc12`, the melting point was in the range of 198 to 200 °C.
As for `CCCCc1n[nH]c(C(=O)O)c1Cc1ccc(-c2ccccc2-c2nc(=O)o[nH]2)cc1`, the figure is 213 to 214 °C; as for `COC(=O)OC1C(OCc2ccccc2)C(COCc2ccccc2)OC(C)(OCc2ccccc2)C1NC(C)=O` (stereo unspecified), 116 to 118 °C.
Take `Cc1[nH]c(C(=O)NCc2ccc3c(c2)OCO3)c(C)c1-c1nc2ccc(C(=O)c3ccccc3)cc2[nH]1`: the melting point is 165 to 167 °C.
Molecule `CSc1ccc(N(C)S(=O)(=O)c2ccc(C)cc2)c(C#N)c1` gave a melting point of 139 to 140 °C.
In turn, `Cc1ccnc(Cl)c1C#N` gave a melting point of 109 to 110 °C.
As for `CC1(C)OC(=O)Nc2c(F)cc(-c3csc(C#N)c3)cc21`, the figure is 250 to 251 °C; as for `CN1C(=O)C(c2ccc[nH]2)=C(c2cn(C(=O)OC(C)(C)C)c3ccccc23)C1=O`, 82 to 83 °C.
For `Oc1ccc2c(c1)COc1c-2cc2ccc(O)cc2c1Cl`, the melting point was in the range of 230 to 231 °C.
As for `Cc1onc2c1NC(=O)COC2(C)c1ccccc1` (stereo unspecified), the figure is 177 to 178 °C.
For the molecule `COc1cc2c(cc1Nc1ncc(Cl)c(N[C@@H]3CCCC[C@H]3NS(C)(=O)=O)n1)N(C)CCN(C[C@@H](O)C(F)(F)F)C2`, the melting point lay within 63 to 66 °C.
As for `CCCCC(C(=O)N1CCCCC1)c1ccc(C(=O)O)cc1` (stereo unspecified), the figure is 142 °C.
The same measure for `CCOC(=O)C1=C(C)NC(N)=C(C(=O)OCC)C1c1ccccc1[N+](=O)[O-]` (stereo unspecified): 159 °C; for `COc1ccc2[nH]ccc(=O)c2c1OCc1ccccc1`: 171 to 172 °C.
In turn, `CC=NOCc1nc2c(N)nc3ccccc3c2n1CC(C)C` showed a melting point of 155 to 156 °C.
As for `Cc1c(C(=O)O)ccc(S(C)(=O)=O)c1C1=NOCC1`, the figure is 182 to 184 °C.
`c1ccc(Cc2nnc(Nc3cccc(-n4ccnc4)c3)c3ccccc23)cc1` gave a melting point of 214 to 217 °C.
On to `CC(=O)N(C)c1cc(N)cc(N(C)C(C)=O)c1`, for which the melting point lay in the range of 179 to 181 °C.
The same measure for `OCc1ccc(-c2cccc3cncn23)cc1`: 137 to 138 °C; for `Clc1cccc(-c2ccc(Cl)nn2)c1`: 155 to 157 °C; for `O=C(N[C@@H](Cc1ccc(-c2c(O)cccc2O)cc1)C(=O)O)c1c(Cl)cccc1Cl`: 238 °C.
Consider `COC(=O)c1cccc(Oc2cccc(-c3nnc(N(Cc4ccc(C(F)(F)P(=O)(O)O)c(Cl)c4)c4ccc(Cl)c(Cl)c4)s3)c2)c1`, for which the melting point was 73 to 76 °C.
The same measure for `c1ccc(CN2CCN(c3onc4c3CCc3ccccc3-4)CC2)cc1`: 148 to 149 °C; for `CS(=O)(=O)c1ccc(-c2oc3ccccc3c(=O)c2-c2ccccn2)cc1`: 203 to 204 °C.
